pEC50, pIC50: −log10 of the molar value. Activity calls are given as the source filed them.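 Rule for the calls: active = compounds giving half or more protection of infected cells from virus-caused growth loss, again on retest; inactive = the rest.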
Test system: CEM cells HIV-1 protection, formazan growth assay
Test: NCI AIDS Antiviral Assay
Details: for pIC50: measured here: growth of uninfected CEM cells
Summary of the method: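 Screen of anti-HIV-1 activity in human CEM cells using a formazan-based growth measurement at five drug concentrations. Hits with 50% or greater protection were repeated, and confirmation required reproducible complete protection.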

Row | SMILES | pEC50 | pIC50 | outcome
1 | O=C(CC(=O)c1ccccc1O)c1ccccc1 | < 4.52 | < 4.52 | 
2 | COc1ccc(/C=c2/sc3n(c2=O)NC2(CCCCC2)NN=3)cc1 |  |  | inactive
3 | N#CC1(C#N)NC(c2cccs2)C(C#N)(C#N)NC1c1cccs1 (centres undefined) | < 3.70 | 4.57 | 
4 | Cc1ccc(NC(=O)CCc2nc(N)nc(N)c2-c2ccccc2)cc1C | < 3.16 | < 3.16 | 
5 | CN1CCN(CCSc2nccc(-c3cc4ccccc4s3)n2)CC1 | < 3.90 | 4.50 | 
6 | N#C/C1=C(\C#N)CCC2(C#N)C3C=CC(O3)C2(C#N)CC1 (centres undefined) | < 3.53 | 4.46 | 
7 | O=C(/C=C\c1cccc2ccccc12)c1cccc2ccccc12 | < 5.05 | < 5.05 | 
8 | Cc1cc(O)c2c(O)c3c(O)cc(=O)c(-c4c(=O)cc(O)c5c(O)c6c(O)cc(C)oc6cc45)c3cc2o1 |  |  | inactive
9 | COc1cc(C2(O)c3ccccc3C3=NCCN32)cc(OC)c1OC (centres undefined) | < 3.70 | < 3.70 | 
10 | CC1=CC(C)C(=O)N(C)C(C)=C1 (centres undefined) | < 2.82 | 3.34 | 
11 | COc1nc(NC2OC(COC(C)=O)C(OC(C)=O)C(OC(C)=O)C2OC(C)=O)c(C(=O)CCl)c(=O)n1C (centres undefined) |  |  | inactive
12 | CC(=O)O[C@H]1CCC2[C@@H]3CCC4C(=O)c5[nH]ncc5C[C@]4(C)C3CC[C@@]21C (some centres undefined) | < 4.06 | < 4.06 | 
13 | O=c1[nH]c2ccc(CC(=S)N3CCOCC3)cc2o1 | < 3.70 | < 3.70 | 
14 | Cc1cc(-c2c(O)c3c(ccc4ccccc43)oc2=O)no1 | < 3.70 | 4.03 | 
15 | O=C(O)/C=C/C(=O)Nc1ncn[nH]1 | < 2.86 | 2.88 | 
16 | CC1(CCCC2(C)CCNC2=O)OCCO1 (centres undefined) | < 3.70 | < 3.70 | 
17 | Cc1ccc(C)c(NC(=O)CC2SC(=Nc3ccccc3Cl)NC2=O)c1 (centres undefined) | < 4.17 | < 4.17 | 
18 | O=C(Nc1ccc(C2=NCCN2)cc1)c1cccc(C(=O)Nc2ccc(C3=NCCN3)cc2)c1Cl | 4.31 | 3.81 | 
19 | C/C(O)=C(/C=NC(=S)c1ccncc1)C(=O)Nc1ccccc1 | < 3.70 | < 3.70 | 
20 | Nc1nccc2c1ncn2C1C=C(CO)C(O)C1O (centres undefined) | < 3.08 | 6.49 | 
21 | COc1ccc(N=C2C(=Nc3ccc(OC)cc3)N(c3ccccc3[N+](=O)[O-])C(=S)N2c2ccc(OC)cc2)cc1 | < 3.70 | 4.32 | 

Row | SMILES | pEC50 | pIC50 | outcome
22 | Nc1ccc(Nc2cc(=O)[nH]c(=O)[nH]2)cc1 | < 3.70 | < 3.70 | 
23 | O=C(O)COc1ccc(C(=O)/C(SS/C(C(=O)c2ccc(OCC(=O)O)c(Cl)c2Cl)=C2\C=C(c3ccccc3Cl)SS2)=C2/C=C(c3ccccc3Cl)SS2)c(Cl)c1Cl | < 4.45 | < 4.45 | 
24 | NC1=NS(=O)(=O)Nc2nc(-c3cccs3)[nH]c21 | < 3.70 | < 3.70 | 
25 | COc1ccc(/C=C(\C#N)c2ccccc2)cc1 | < 5.07 | 5.20 | 
26 | S=C(S)N1CCN(c2ccccc2)CC1 | < 3.70 | < 3.70 | 
27 | O=c1[nH]c2ccccc2nc1/C=C/NC(=S)Nc1ccccc1 | < 3.70 | < 3.70 | 
28 | Cc1ccc(C)c(N2C(=O)C(=O)c3c(C)ccc(C)c32)c1 | < 3.70 | 4.48 | 
29 | Cc1c2ncccc2cc2oc3ccccc3c(=O)c12 | < 3.70 | 5.00 | 
30 | COC(=O)C(Cc1cn(C(C)=O)c2ccccc12)P(=O)(OC)OC (centres undefined) | < 3.70 | < 3.70 | 
31 | CN1CCN(CCCCN2c3ccccc3Sc3ccc(N=[N+]=[N-])cc32)CC1 | < 3.70 | 5.28 | 
32 | c1cncc(C2(c3cc4ccccc4[nH]3)COCO2)c1 (centres undefined) | < 3.70 | 3.90 | 
33 | C1CCCCC2(CCCCCCCCC3(CCC1)SCCS3)SCCS2 | < 3.70 | < 3.70 | 
34 | O=c1[nH]c(Nc2cccc(Cl)c2)nc2nc[nH]c12 | < 3.70 | 3.82 | 
35 | COC(=O)[C@@]1(C)/C(=N/NS(=O)(=O)c2ccc(C)cc2)CCC[C@@H]1C | < 3.57 | 3.66 | 
36 | C1CCCCC/C2=C(\CCCC1)CSCCCS2 | < 3.70 | 4.23 | 
37 | COC1(CC[C@H](C)COC2OC(CO)C(O)C(O)C2O)O[C@H]2C[C@H]3[C@@H]4CC=C5C[C@@H](OC6OC(CO)C(OC7OC(C)C(O)C(O)C7O)C(O)C6OC6OC(C)C(O)C(O)C6O)CC[C@]5(C)[C@H]4CC[C@]3(C)[C@H]2[C@@H]1C (some centres undefined) | < 3.70 | 5.80 | 
38 | CCS[C@]1(C)C(=O)c2ccccc2C(=O)[C@@]1(C)O |  |  | inactive
39 | COC(=O)c1c/c(=N\NC(=O)CC(=O)Nc2ccc(C)cc2)c2ccccc2o1 | < 3.20 | < 3.20 | 
40 | O=C1C=C(c2c(O)ccc3ccccc23)c2ccccc2C1=O |  |  | inactive
41 | CC(=O)Nc1cc2c(s1)CCC1CC(=O)NN=C21 (centres undefined) | < 3.70 | < 3.70 | 
42 | CS(=O)(=O)c1ccc(N=C/C=C/Nc2ccc(S(C)(=O)=O)cc2)cc1 | < 3.70 | < 3.70 | 

Row | SMILES | pEC50 | pIC50 | outcome
43 | COc1cc(CO)c(-c2c(CO)cc(OC)c(OC)c2OC)c(OC)c1OC | < 3.20 | < 3.20 | 
44 | Nc1nc(Cl)c(N)c(NCC2(CO)CC(OCc3ccccc3)C2)n1 (centres undefined) | < 4.70 | 5.67 | 
45 | CN(c1ccccc1)S(=O)(=O)c1ccccc1[N+](=O)[O-] | < 3.70 | 4.19 | 
46 | COC(=O)C12CN(C)CC(C(=O)OC)(C1=O)C(c1ccccn1)N(C)C2c1ccccn1 (centres undefined) | < 4.29 | 4.44 | 
47 | O=C(OCCc1ccccc1)c1cc2cc(O)c(O)cc2cn1 | < 5.08 | < 5.08 | 
48 | CCOC(=O)C(=[N+]=[N-])C(=O)C1(C(=O)OCC)CCN(C(=O)c2ccccc2)C1=O (centres undefined) | < 3.70 | < 3.70 | 
49 | Clc1nc2n(c1/C=C/c1cccs1)CCS2 | < 3.70 | 4.69 | 
50 | COc1ccccc1NC(=O)c1nc2ccc([N+](=O)[O-])cc2nc1C | < 3.83 | < 3.83 | 
51 | N#CC(C(=O)/C(=N/N)C(C#N)c1ccc(Cl)cc1)c1ccc(Cl)cc1 (centres undefined) | < 3.17 | < 3.17 | 
52 | O=c1[nH]cc(N=Nc2ccc(S(=O)(=O)Nc3nccs3)cc2)cc1O | < 3.71 | 3.77 | 
53 | Cc1ccc(-c2c3nc(c(-c4ccc(C)cc4)c4ccc([nH]4)c(-c4ccc(C)cc4)c4nc(c(-c5ccncc5)c5ccc2[nH]5)C=C4)C=C3)cc1.Cc1ccc(-c2c3nc(c(-c4ccc(C)cc4)c4ccc([nH]4)c(-c4ccc(C)cc4)c4nc(c(-c5ccncc5)c5ccc2[nH]5)C=C4)C=C3)cc1.O=S(=O)([O-])C(F)(F)F.[Pd+2].c1ccc([PH+](CCC[PH+](c2ccccc2)c2ccccc2)c2ccccc2)cc1 | < 4.30 | 5.46 | 
54 | CC(C)N(C(=O)C12C3C4C5(C(=O)O)C(C1C35I)C42C(=O)O)C(C)C (centres undefined) | < 3.25 | < 3.25 | 
55 | O=C(/C(=C\c1ccc(Cl)cc1)c1ccccc1)c1ccccc1 | < 4.93 | < 4.93 | 
56 | CCCCc1c2c(nc3c1CC/C(=C\c1ccc([N+](=O)[O-])cc1)C3=O)CCCC2 | < 5.16 | 5.88 | 
57 | C=CC/C(C(=O)OC)=C(/C(=O)OC)N(CCC)CCC | < 3.70 | 4.47 | 
58 | CC(=O)OCC1OC(n2c3c(c(-c4ccc(Cl)cc4)c(C#N)c2=S)C(=O)CC(C)(C)C3)C(OC(C)=O)C(OC(C)=O)C1OC(C)=O (centres undefined) | < 3.70 | 5.19 | 
59 | Clc1cccc(C=NC23CC4CC(CC(C4)C2)C3)c1Cl | < 3.70 | 4.88 | 
60 | CC1=C(C)C(=O)c2c(cc3ccc4ccccc4n23)C1=O |  |  | inactive
61 | CNC(=O)NC(CCCCNC(=O)OCc1ccccc1)C(=O)OCc1ccccc1 (centres undefined) | < 4.08 | 4.40 | 
62 | Cc1ccc(C)c(NC(=O)/C(=N\NC(N)=S)C(C#N)c2ccccc2)c1 (centres undefined) | < 4.71 | < 4.71 | 
63 | COCCN1C(=O)C2c3[nH]c4ccccc4c3C3CCC(C(C)(C)C)CC3C2C1=O (centres undefined) | < 3.70 | 4.40 | 

Row | SMILES | pEC50 | pIC50 | outcome
64 | O=C(Nc1cccc(Cl)c1)Nc1ccc[nH]c1=O | < 3.31 | 4.60 | 
65 | Cc1cc(=O)c2c([nH]1)NS(=O)(=O)NC2=O | < 2.83 | < 2.83 | 
66 | O=C(O)CCS(=O)(=O)O | < 3.70 | < 3.70 | 
67 | CC1=Nc2nnnn2N=C(C)C1 | < 3.63 | < 3.63 | 
68 | CC1=Nc2ccccc2N=C(c2c(O)c3c(ccc4ccccc43)oc2=O)C1 | < 3.70 | 4.70 | 
69 | COc1ccc(-n2c(N)c(C#N)[nH]c2=O)cc1 | < 3.70 | < 3.70 | 
70 | O=C1c2ccccc2-n2c1nc1ccccc1c2=O | < 3.70 | 4.28 | 
71 | CCOC(=O)/C=C/n1cc(C)c(=O)[nH]c1=O | < 3.65 | 3.93 | 
72 | O=C(Nc1ccccc1SC(/C=C/NNC1=NC(c2ccccc2)C(c2ccccc2)=NN1)c1ccccc1)c1ccc(Cl)cc1Cl (centres undefined) | < 4.97 | < 4.97 | 
73 | Cc1cc([N+](=O)[O-])c(S(=O)(=O)c2ccccc2)c([N+](=O)[O-])c1 | < 4.65 | 5.44 | 
74 | COC(=O)Nc1nc2ccc(C(=O)c3ccc(F)cc3)cc2[nH]1 | < 5.70 | 7.06 | 
75 | C[C@H](NC(=O)c1ccccc1SC(=O)OCCCCCl)C(N)=O | 4.68 | < 3.70 | 
76 | N#C/C(=C\c1ccccc1)c1nc(-c2cc3ccccc3oc2=O)cs1 | < 3.82 | < 3.82 | 
77 | S=P(Oc1cc(Cl)c(Cl)cc1Cl)(N1CCN(c2cccc(Cl)c2)CC1)N1CCN(c2cccc(Cl)c2)CC1 | < 4.95 | < 4.95 | 
78 | O=S(O)CCCSSc1ccccc1 |  |  | inactive
79 | COC(=O)c1cc2c(n1S(=O)(=O)c1ccc(C)cc1)C(=O)C(=O)c1[nH]cc(C(=O)OCc3ccccc3)c1-2 | < 3.70 | 6.42 | 
80 | C=C1[C@H]2C[C@H]3[C@@H]4N5C[C@]6(C)CCCC47C6[C@@]5(O)CC3([C@@H]1O)[C@H]7[C@H]2O |  |  | inactive
81 | OC1c2c(ccc3c2CCC3)CC12Cc1ccccc1C2 (centres undefined) | < 3.70 | 4.42 | 
82 | CCOC(=O)C(NC(=O)CC)(Nc1ccc(S(=O)(=O)Nc2nc(C)cc(C)n2)cc1)C(F)(F)F (centres undefined) | < 3.70 | < 3.70 | 
83 | CC(C)(C)C1CCC2c3c([nH]c4ccccc34)C3C(=O)N(c4ccccc4[N+](=O)[O-])C(=O)C3C2C1 (centres undefined) | < 3.70 | 4.44 | 
84 | Cn1c(N)nc2c3ccc(=O)[nH]c3ccc21 |  |  | inactive
